Conversion product data for one compound are collected here from publication PMC11489226 (Archives of Toxicology, 2024).

This data set addresses T1, CYP2C9 (Homo sapiens, UniProt P11712).
T1 construct: V5-His (vector-encoded) (C); expressed in transfected cells
The data set is described as follows: Metabolism in transgenic HEK293 cells expressing CYP2C9. The data set is classed as in vitro ADME. To be noted: HEK293CYP2C9; 10 µM substrate, 24 h. As to the method:
For the generation of transgenic cell lines, we used semi-adherent HEK293 cells (DSMZ, ACC305, human embryonic kidney cells) which were cultured on a daily basis in DMEM medium supplemented with 10% (FCS) and 1% penicillin/streptomycin. In a first step CYP1A2, CYP2C8, CYP2C9, CYP3A4, CYP2A6, and CYP2E1 cDNA were cloned into the plasmid pcDNATM3.1/V5-His TOPO® using human liver RNA as a template and using the following primers: CYP1A2 for5′-[…]-3′, CYP1A2 rev 5′-[…]-3′; CYP2C8 for 5′-[…]-3′, CYP2C8 rev 5′-[…]-3′; CYP2C9 for 5′-[…]-3′, CYP2C9 rev 5′-[…]-3′; CYP3A4 for 5′-[…]-3′, CYP3A4 rev 5′-[…]-3′, CYP2A6 for 5′-[…]-3′, CYP2A6 rev 5′-[…]-3′; CYP2E1 for 5′-[…]-3′, CYP2E1 rev 5′-[…]-3′. Final constructs were verified with Sanger DNA sequencing and restriction digestion. For transfection, 3 × 10^6 HEK293 cells were pre-incubated in a 10 cm dish in DMEM medium with 10% FCS, but without antibiotics, for 18 to 24 h. When the cells reached approximately 70% confluency, they were transfected using TransIT-LT1 transfection reagent (Biozol, Eiching, Germany). […]
HEK293 cells overexpressing the respective CYP enzymes were seeded onto 6-well plates and were treated with or without 10 µM of the respective probe drug in DMEM medium for 24 hours at 37 °C and 5 % CO2. […] Analytes were measured by LC-MS/MS either in methanol cell lysates or in DMEM supernatant. […]

T1 sequence (P11712 whole entry): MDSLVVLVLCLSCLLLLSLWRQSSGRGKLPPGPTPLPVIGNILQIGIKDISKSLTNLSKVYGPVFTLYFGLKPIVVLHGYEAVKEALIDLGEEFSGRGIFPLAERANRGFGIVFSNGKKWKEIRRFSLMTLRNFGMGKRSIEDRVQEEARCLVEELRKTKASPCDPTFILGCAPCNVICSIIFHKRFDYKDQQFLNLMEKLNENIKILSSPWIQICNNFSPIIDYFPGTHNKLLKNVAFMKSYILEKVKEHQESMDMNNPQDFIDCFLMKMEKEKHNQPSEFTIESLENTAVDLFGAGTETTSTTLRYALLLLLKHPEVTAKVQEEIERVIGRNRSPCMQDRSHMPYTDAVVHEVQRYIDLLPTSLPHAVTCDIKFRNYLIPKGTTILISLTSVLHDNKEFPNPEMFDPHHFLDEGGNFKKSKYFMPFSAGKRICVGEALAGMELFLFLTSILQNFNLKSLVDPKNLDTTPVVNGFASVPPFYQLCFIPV

As for `Cc1cccc(Nc2ccncc2S(=O)(=O)NC(=O)NC(C)C)c1` [Torasemide], the Conversion product entry is on record as “Hydroxy torasemide”.
